Measurements from patent US11690935B2, “Thermosensitive peptide hydrogel” (NATIONAL CHIAO TUNG UNIVERSITY, priority 2020, dated 2023).
Values belong to the compound of their own block, whether it stands above or below them. Residues, ends and D or L forms follow the SMILES beside them. *: point of attachment. Phenylacetyl(2,3,4,5,6-F5) = O=C(Cc1c(F)c(F)c(F)c(F)c1F)*

Assays:
[1] = Gel formation / sol-gel transition by vial inverting method; assay type: physicochemical; conditions: for CGC: Table 5, critical gelation concentration; for Time at room temperature to convert again into a sol state: after gelation at 37° C., regardless of the concentration
Experimental: In a glass bottle of 2 mL (diameter 10 mm) with a screw cap, different compounds with different concentrations were weighed to perform the gelation. A sodium hydroxide solution was added to the suspension in order to adjust the pH value, and vortex and treatment of the sonication were alternately used until a clear compound solution was obtained. Polyethylene glycols having different molecular weights such as 300 g/mol, 600 g/mol, 1000 g/mol, 1500 g/mol, 2000 g/mol, and 3000 g/mol, etc. were also dissolved in the deionized water in order to obtain the polyethylene glycol solution, and the desired concentrations were further controlled. After the polyethylene glycols were completely dissolved, the polyethylene glycol solution was then mixed with the compound solution in order to obtain a compound/PEG solution. By adding hydrochloric acid dropwise, the pH value of the compound/PEG solution was adjusted to a neutral pH value of 7.0-7.4.
Gel formation was determined by a vial inverting method. After the equilibrium at room temperature, a glass bottle with the sample was immersed into a water bath of 37° C. in equilibrium or in an incubator of 37° C. for 30 minutes. After flipping the glass bottle, the sol-gel transition was determined. If the sample without floating was observed within 1 minute, the sample was considered as a gel. […] Each of the temperature data point represented an average temperature of three measurements. At a physiologically relevant temperature of 37° C., the gelation time as a function of the concentration of the block copolymer was measured in the water bath of 37° C.

[2] = Cell viability test (MTT assay); assay type: cell-based; conditions: human, hMSC (3A6) cells, read-out: Survival rate
Experimental: The biocompatibilities of different peptide molecules were measured by a cell viability test (MTT assay). hMSC (3A6) cells were seeded in a 24-well plate with a density of 50,000 cells in each well, and the hMSC (3A6) cells were cultured for 24 hours, wherein the 24-well plate comprises a culture medium (DMEM) of 0.5 mL, and the DMEM comprises 10% FBS and 1% penicillin. When seeded in the cells, each of the wells was added with the compounds of different concentrations (0.5 and 5 wt %). After 24 and 48 hours, the original culture medium was replaced by a fresh culture medium, wherein the fresh culture medium was supplemented with a MTT reagent of 0.5 mL (4 mg/mL). After another 4 hours, the culture medium containing the MTT reagent was removed, and DMSO (0.5 mL per well) was then added in order to dissolve formazan crystals. Each of the 24-well plate was transferred to a 96-well plate. The optical density of the cells was measured at 595 nm by a light absorption plate reader (Sunrise, DV990/BV4 GDV Programmable MPT reader). The cells without treated by the compounds were used as the control group. The cell viability percentage, that is, viability (%), of the cells was calculated according to the following Formula (2).
[formula] wherein ODsample represented the optical density of the sample, and ODcontrol represented the optical density of the control group.
In some embodiments of the invention, a cell viability test (MTT assay) was used for a colorimetric assay to analyze the biocompatibilities of the samples. In detail, a 0.5 wt % 5F-FF, a 0.5 wt %: 4.5 wt % 5F-FF/PEG1500, a 0.5 wt %: 4.5 wt % 5F-FF/PEG2000, and a 0.5 wt %: 4.5 wt % 5F-FF/PEG3000 (hydrogels under neutral conditions), and the immortalized human mesenchymal stem cells (hMSC, 3a6) was selected for testing, wherein the results were shown in FIG. 11. FIG. 11 was a diagram showing cell viability of cells treated with 0.5 wt % 5F-FF, 0.5 wt %: 4.5 wt % 5F-FF/PEG1500, 0.5 wt %: 4.5 wt % 5F-FF/PEG2000 and 0.5 wt %: 4.5 wt % 5F-FF/PEG3000 according to some embodiments of the invention.

[3] = Hydrogel degradation in PBS at 37° C.; assay type: physicochemical; conditions: on the seventh day, PBS pH 7.4, 37° C.
Experimental: Hydrogel degradation was performed in a phosphate buffered solution (PBS) at 37° C. with 5% of CO2. In a 4 mL glass bottle, various 0.3 mL hydrogels were prepared, and 3 mL PBS was added to each of the glass bottles having the hydrogel. At some specific data points, the PBS was removed. The hydrogel was freeze-dried by the freeze-drying method, and the hydrogel degradation rate was calculated according to the following Formula (1),
[formula] wherein W (%) represented the hydrogel degradation rate, Wi represented the initial weight of the hydrogel at day 0, and Wd represented the dry weight of the hydrogel at day of a specific number. Cell Viability Test
In some embodiments of the invention, accordingly, with the remaining conditions the same, the stability of the thermosensitive hydrogel was tested by immersing the samples into a PBS with the pH value of 7.4 at 37° C., and the result thereof was shown in FIG. 10. FIG. 10 was a diagram showing specific degradation percentage over time of the 5F-FF, 5F-FF/PEG300, 5F-FF/PEG600, 5F-FF/PEG1000, 5F-FF/PEG1500, 5F-FF/PEG2000, and 5F-FF/PEG3000 alone in the PBS according to some embodiments of the invention.

Structure (SMILES): O=C(Cc1ccc(F)cc1)N[C@@H](Cc1ccccc1)C(=O)N[C@@H](Cc1ccccc1)C(=O)O [Sample 1F-FF]
CGC ([1]; pH 7.0): 1 wt %
State at 37° C. ([1]; Table 6, 1F-FF with PEG of different molecular weights, pH 7.0): Gel
Detailed description of the sample ([1]; Table 6, after cooling at 0° C.): Still hydrosol
State at 0° C. (Surrounded by ice cubes) ([1]; Table 6, gel-sol behavior, pH 7.0): Gel

Structure (SMILES): O=C(Cc1c(F)cc(F)cc1F)N[C@@H](Cc1ccccc1)C(=O)N[C@@H](Cc1ccccc1)C(=O)O [Sample 3F-FF]
CGC ([1]; pH 7.0): 0.5 wt %

Structure (SMILES): O=C(Cc1c(F)c(F)c(F)c(F)c1F)N[C@@H](Cc1ccccc1)C(=O)N[C@@H](Cc1ccccc1)C(=O)O [Sample 5F-FF, 2,3,4,5,6-fluorobenzyl-diphenylalanine]
viability at 24 h, 0.5 wt % ([2]; day 1, hMSC (3A6), hydrogels under neutral conditions): 84%
viability at 48 h, 0.5 wt % ([2]; day 2, hMSC (3A6)): 88.6%
viability at 72 h, 0.5 wt % ([2]; day 3, hMSC (3A6)): 68.2%
viability at 120 h, 0.5 wt % ([2]; day 5, hMSC (3A6)): 73.3%
viability at 168 h, 0.5 wt % ([2]; day 7, hMSC (3A6)): 84%
Time Tsol-gel ([1]; 5F-FF with PEG of different molecular weights, thermosensitive gelation at 37° C., pH 7.0): Gel
CGC (critical gelation concentration) ([1]; 5F-FF, Table 2): 0.5 wt %
Degradation percentage [3]: 35.75%

Now from value to compound:

Time at room temperature to convert again into a sol state [1]: 20 min
Structure (SMILES): CC(NC(=O)C(Cc1cnc[nH]1)NC(=O)CNC(=O)C(Cc1ccccc1)NC(=O)C(Cc1ccccc1)NC(=O)Cc1c(F)c(F)c(F)c(F)c1F)C(=O)NC(C(=O)NC(CC(=O)O)C(=O)O)C(C)C (stereo not drawn) [Sample 5F-FFGHAVD] ({Phenylacetyl(2,3,4,5,6-F5)}-FFGHAVD-OH; configuration not given here)

Time at room temperature to convert again into a sol state [1]: 20 min
Structure (SMILES): N=C(N)NCCCC(NC(=O)C(Cc1ccccc1)NC(=O)C(Cc1ccccc1)NC(=O)Cc1c(F)c(F)c(F)c(F)c1F)C(=O)NCC(=O)NC(CC(=O)O)C(=O)O (stereo not drawn) [Sample 5F-FFRGD] ({Phenylacetyl(2,3,4,5,6-F5)}-FFRGD-OH; configuration not given here)
